Data as given in patent US9469616B2, “Cyclic compounds and methods of making and using the same” (Cellceutix Corporation, priority 2011, dated 2016).
Converted amounts (≈) assume the structure as drawn.

Experiments:
[1] = system: K. pneumoniae (13883); assay: MIC assay (Table 1); assay type: cell-based; conditions: Klebsiella pneumoniae, isolate 13883, read-out: MIC50 K. Pnuemnoiae
Procedure: (§1) The compounds are screened for antimicrobial activity against a number of clinically relevant pathogens. Minimum Inhibitory Concentrations (MIC) of each of the compounds are determined using standard procedures for clinical ocular isolates of Ciprofloxacin Susceptible (CS) S. aureus (CSSA), Ciprofloxacin Resistant (CR) S. aureus (CRSA), CS S. epidermidis (CSSE), CR S. epidermidis (CRSE), St. pneumoniae (SP), St. viridans group (SV), Moraxella Species (MS) (including Moraxella catarrhalis), H. influenzae (HI), P. aeruginosa (PA), Serratia marcescens (SM), S. aureus fluoroquinolone-susceptible, S. aureus fluoroquinolone-resistant, S. epidermidis (Coagulase-negative Staphylococcus) fluoroquinolone-susceptible, S. epidermidis (Coagulase-negative Staphylococcus) fluoroquinolone-resistant, and Serratia marcescens.
(§2) On the day of testing, a 640 μg/m (1280 μg/m for Serratia marcescens and Pseudomonas aeruginosa) concentration is prepared from a 1% stock solution in 0.01% acetic acid, 0.2% BSA in polypropylene tubes.
(§3) Ten μl of diluted 10× test agents is added to each well of one row of the 96 well polypropylene plates from column 2 to column 12 (column 1 is a control for bacteria alone, with no peptide). […] The same peptide is in each of the 8 rows. One plate contains dilutions of one test agent and 8 bacterial isolates.
(§4) Ninety μl of the bacterial suspensions is dispensed in each well from column 1 to column 12. Each bacterial isolate is placed in one row of a 96 well polypropylene plate containing the test agents. The plates are placed on shaker at 15 minutes at room temperature, and then incubated at 37° C. overnight. MICs are determined visually as the lowest concentration of drug that inhibits visible bacterial growth.
(§5) Data is expressed as MIC50 in μg/ml. The bacterial isolates were as follows: E. coli (25922); S. aureus (27660); E. faecalis (29212); P. aeruginosa (10145); and K. pneumoniae (13883).

[2] = system: E. faecalis (29212); assay: MIC assay (Table 1); assay type: cell-based; conditions: Enterococcus faecalis, isolate 29212
Procedure: as §1, §2, §3, §4, §5

Question: `NCCCOc1cc(-c2ccc3ccc(-c4cc(OCCCN)c(OCCCN)c(OCCCN)c4)cc3c2)cc(OCCCN)c1OCCCN` [Compound 116] was tested. Which MIC50 [1] did it give?
Answer: Its MIC50 is 25 µg/mL (≈ 34.8 µM).

Question: What about the MIC50 [2] of the same compound?
Answer: Its MIC50 is 25 µg/mL (≈ 34.8 µM).
